Laboratory results reported in article PMC9313110, “Modulating the Fibrillization of Parathyroid-Hormone (PTH) Peptides: Azo-Switches as Reversible and Catalytic Entities” (Biomedicines, 2022).
Values after ≈ are worked out from the molar mass of the structure shown. Starred links: 1 amine or outer side, 2 acyl side, 3 side chain; linkers in the order of their positions; H or OH if unused. Non-standard residues stand in square brackets, D forms with d. Residues, ends and D or L forms follow the SMILES beside them. X3 = O=C(c1cccc(N=Nc2ccc(CN[*:1])cc2)c1)[*:2]

Columns and labels:
[1] = Maximum solubility in fibrillization buffer; format: physicochemical; details: 50 mM Na2HPO4 buffer (pH 7.4), UV-Vis absorption (ε = 49310 M-1cm-1 at 205 nm for PTH25-37, ε = 13000 M-1cm-1 at 327 nm for 3,4'-AMPB peptides)
Description: ThT-monitored fibrillization assays of artificial peptides and mixtures with PTH25–37 were investigated by fluorescence intensity measurements using thioflavin T (ThT) as fluorescent dye. Lyophilized peptides were dissolved in 50 mM Na2HPO4 buffer solution with a pH value of 7.4 in a concentration of 2 mg/mL and kept on ice for the next steps. The samples were centrifuged at 13,000× […] for 10 s and the concentrations were determined with a JASCO V-660 absorbance spectrometer (JASCO, Pfungstadt, Germany; PTH25–37 by absorbance at 205 nm and the molar extinction coefficient of 49,310 cm^−1M^−1; trans-AzoPTH25–37 by absorbance at 327 nm and the molar extinction coefficient of 13,000 cm^−1M^−1). Cis-AzoPTH25–37 was produced as described before. The solutions were centrifuged at 10,000 rpm for 1 h at 4 °C, the supernatant was transferred to another tube. The protein solutions were mixed in the desired ration and diluted with 50 mM Na2HPO4 buffer (pH 7.4) to obtain final concentrations of 0/100 μM PTH25–37, 50 μM ThT, and 0/10/20/50/100 μM AzoPTH25–37. For each sample, a total volume of 480 μL was prepared and 3 × 150 μL were transferred to a medium binding 96-well plate (Greiner Bio-One, Kremsmünster, Austria). The plate was sealed with a microplate cover. The fluorescence intensity was monitored at 37 °C using a BMG FLUOStar Omega multi-mode plate reader (BMG LABTECH, Ortenberg, Germany) using fluorescence excitation and emission wavelengths at 460 nm and 485 nm, respectively. One measurement cycle of 5 min consisted of double-orbital shaking for 150 s and incubating for 150 s.
2. Peptide Characterisation
Table S1: Primary sequence and solubility in 50 mM Na2PO4 buffer (pH 7.4) of peptides AzoPTH25-37 and SP1-
peptide primary sequencea solubility [μM]b
a Azo = 3,4’-AMPB; b maximum solubility was determined via UV-Vis absorption spectroscopy
2.2. HPLC- and MALDI-ToF-data
Figure S1: (A) HPLC-trace of AzoPTH25-37 (cis-isomer at 5.353, trans-isomer at 5.530). (B) MALDI-spectrum

[2] = in the dark; ref [41],[42]; cited from earlier work
[3] = ThT-monitored fibrillization assay of the pure peptides; format: physicochemical; details: pure peptide 100 μM; 50 μM ThT; 50 mM Na2HPO4, pH 7.4; 37 °C; fluorescence ex 460 nm/em 485 nm; average of triplets
Description: ThT-monitored fibrillization assays of artificial peptides and mixtures with PTH25–37 were investigated by fluorescence intensity measurements using thioflavin T (ThT) as fluorescent dye. Lyophilized peptides were dissolved in 50 mM Na2HPO4 buffer solution with a pH value of 7.4 in a concentration of 2 mg/mL and kept on ice for the next steps. The samples were centrifuged at 13,000× […] for 10 s and the concentrations were determined with a JASCO V-660 absorbance spectrometer (JASCO, Pfungstadt, Germany; PTH25–37 by absorbance at 205 nm and the molar extinction coefficient of 49,310 cm^−1M^−1; trans-AzoPTH25–37 by absorbance at 327 nm and the molar extinction coefficient of 13,000 cm^−1M^−1). Cis-AzoPTH25–37 was produced as described before. […] The fluorescence intensity was monitored at 37 °C using a BMG FLUOStar Omega multi-mode plate reader (BMG LABTECH, Ortenberg, Germany) using fluorescence excitation and emission wavelengths at 460 nm and 485 nm, respectively. […]
In order to determine the kinetics of fibril formation of both modified AzoPTH25–37 isomers a thioflavin T (ThT)-monitored fibrillization assay was conducted and compared to PTH25–37. […] Causing a large red shift of fluorescence excitation of ThT, which in turn enables the selective excitation of amyloid fibril-bound ThT and therefore the in situ observation of fibril formation. […]

[4] = format: physicochemical
Description: We first studied the photophysical properties of the cis-trans-isomerization of AzoPTH25–37 (Figure 1b) by UV/Vis spectroscopy and HPLC analysis in pure water in order to minimize effects of a potential self-assembly and to quantify the generated amounts of the respective cis/trans-modified peptides before and after photoswitching. The UV/Vis spectra for the pure isomers (Figure S6) were separated from the spectra of trans-enriched AzoPTH25–37 in the thermodynamically stable state after synthesis and in the cis-enriched photostationary state (PSS, Figure 3) with Wolfram Mathematica 12.2. […] Both isomers display two isobestic points at 278 nm and 388 nm. They represent in the thermodynamically stable state a cis-trans ratio of 3:97. Under irradiation with UV light (340 nm), the cis-content could be increased of up to 82% in the cis-enriched PSS. Visible light (405 nm) yields 76% of the trans-isomer in the trans-enriched PSS via the back reaction. The difference of the trans-content between the trans-enriched PSS at 405 nm and the thermodynamically stable state arises from the overlapping of the n → π* transitions of both isomers at this wavelength. The rate of thermal cis-to-trans isomerization of AzoPTH25–37 follows first-order kinetics, and was determined by monitoring the increase of the π → π* absorption band at 327 nm (Figure S7) via time-dependent UV measurements.
2.3. […]

Row | Compound | solubility (maximum solubility) [1] [µM] | other results
1 | CC(C)C[C@H](NC(=O)[C@H](C)NC(=O)[C@@H](NC(=O)[C@H](Cc1ccccc1)NC(=O)[C@H](CC(N)=O)NC(=O)[C@H](Cc1c[nH]cn1)NC(=O)[C@@H](NC(=O)c1cccc(N=Nc2ccc(CNC(=O)[C@H](CC(=O)O)NC(=O)[C@H](CCC(N)=O)NC(=O)[C@H](CC(C)C)NC(=O)[C@H](CCCCN)NC(=O)[C@H](CCCCN)NC(=O)[C@@H](N)CCCNC(=N)N)cc2)c1)C(C)C)C(C)C)C(=O)O [SP1] (H-RKKLQD[X3]VHNFVAL-OH) | 60 (≈ 108 µg/mL) | –
2 | NCc1ccc(N=Nc2cccc(C(=O)O)c2)cc1 [3,4′-AMPB, 3-{[(4-aminomethyl)phenyl]diazenyl}benzoic acid] | – | half-life time of thermal back-isomerization of the photoswitch [2]: more than 20 h
3 | CC(C)C[C@H](NC(=O)[C@H](C)NC(=O)[C@@H](NC(=O)[C@H](Cc1ccccc1)NC(=O)[C@H](CC(N)=O)NC(=O)[C@H](Cc1c[nH]cn1)NC(=O)[C@@H](NC(=O)c1cccc(N=Nc2ccc(CNC(=O)[C@H](CCC(N)=O)NC(=O)[C@H](CC(C)C)NC(=O)[C@H](CCCCN)NC(=O)[C@H](CCCCN)NC(=O)[C@@H](N)CCCNC(=N)N)cc2)c1)C(C)C)C(C)C)C(=O)O [SP3] (H-RKKLQ[X3]VHNFVAL-OH) | 35 (≈ 59.2 µg/mL) | –
4 | CC(C)C[C@H](NC(=O)[C@H](C)NC(=O)[C@@H](NC(=O)[C@H](Cc1ccccc1)NC(=O)[C@H](CC(N)=O)NC(=O)[C@H](Cc1c[nH]cn1)NC(=O)c1cccc(N=Nc2ccc(CNC(=O)[C@@H](NC(=O)[C@H](CC(=O)O)NC(=O)[C@H](CCC(N)=O)NC(=O)[C@H](CC(C)C)NC(=O)[C@H](CCCCN)NC(=O)[C@H](CCCCN)NC(=O)[C@@H](N)CCCNC(=N)N)C(C)C)cc2)c1)C(C)C)C(=O)O [SP2] (H-RKKLQDV[X3]HNFVAL-OH) | 55 (≈ 99.3 µg/mL) | –
5 | CC(C)C[C@H](NC(=O)[C@H](C)NC(=O)[C@@H](NC(=O)[C@H](Cc1ccccc1)NC(=O)[C@H](CC(N)=O)NC(=O)[C@H](Cc1c[nH]cn1)NC(=O)c1cccc(N=Nc2ccc(CNC(=O)[C@H](CCC(N)=O)NC(=O)[C@H](CC(C)C)NC(=O)[C@H](CCCCN)NC(=O)[C@H](CCCCN)NC(=O)[C@@H](N)CCCNC(=N)N)cc2)c1)C(C)C)C(=O)O [SP4] (H-RKKLQ[X3]HNFVAL-OH) | 25 (≈ 39.8 µg/mL) | –
6 | CC(C)C[C@H](NC(=O)[C@H](C)NC(=O)[C@@H](NC(=O)[C@H](Cc1ccccc1)NC(=O)[C@H](CC(N)=O)NC(=O)[C@H](Cc1c[nH]cn1)NC(=O)[C@@H](NC(=O)[C@H](CC(=O)O)NC(=O)[C@H](CCC(N)=O)NC(=O)[C@H](CC(C)C)NC(=O)[C@H](CCCCN)NC(=O)[C@H](CCCCN)NC(=O)[C@@H](N)CCCNC(=N)N)C(C)C)C(C)C)C(=O)O [PTH25–37] (H-RKKLQDVHNFVAL-OH) | > 1000 | tchar (time at which 50% of the maximum fluorescence was reached) [3]: 10.9 h; tlag (lag time, time before an increase in the fluorescence signal occurs) [3]: 7.2 h
7 | CC(C)C[C@H](NC(=O)[C@H](C)NC(=O)[C@@H](NC(=O)[C@H](Cc1ccccc1)NC(=O)[C@H](CC(N)=O)NC(=O)[C@H](Cc1c[nH]cn1)NC(=O)c1cccc(N=Nc2ccc(CNC(=O)[C@H](CC(=O)O)NC(=O)[C@H](CCC(N)=O)NC(=O)[C@H](CC(C)C)NC(=O)[C@H](CCCCN)NC(=O)[C@H](CCCCN)NC(=O)[C@@H](N)CCCNC(=N)N)cc2)c1)C(C)C)C(=O)O [AzoPTH25–37] (H-RKKLQD[X3]HNFVAL-OH) | 240 (≈ 409 µg/mL) | photostability in the dark [4]: more than 20 h; solubility (maximum solubility) ([1]; listed as AzoPTH25-37): 250 µM (≈ 426 µg/mL)
